# Reference: paper PMC12250965, “Design and Synthesis of Sulfonium and Selenonium Derivatives Bearing 3′,5′-O-Benzylidene Acetal Side Chain Structure as Potent α-Glucosidase Inhibitors” (Molecules, 2025)
# Where two headings read alike, the source gives them in different places.
# Experiments:
# rat intestinal sucrase = target: T1, rat intestinal sucrase (Rattus norvegicus, UniProt P23739); experiment: In vitro α-glucosidase inhibition assay, rat intestinal sucrase; type: biochemical
# T1 construct: rat small intestinal brush border membrane vesicles were first prepared; from tissue; host or cells: rat small intestine, brush border membrane vesicles
# Method: (§1) The testing method previously described was modified and used. Thus, rat small intestinal brush border membrane vesicles were first prepared, and its suspension in 0.1 M maleate buffer (pH = 6.0) was used as small intestinal α-glucosidases of maltase and sucrase. A test compound was dissolved in dimethylsulfoxide (DMSO), and the resulting solution was diluted with 0.1 M maleate buffer to prepare the test compound solution (concentration of DMSO: 10%). The substrate solution in maleate buffer ([…], 50 μL), a test compound solution (25 μL), and the enzyme solution (25 μL) were mixed and incubated at 37 °C for 30 min. After incubation, the solution was immediately heated by boiling water for 2 min to stop the reaction, and the solution was mixed with water (150 μL). Glucose concentration was determined by the glucose-oxidase method. […] The IC50 value was determined graphically by a plot of percent inhibition versus log of the test compound.
# rat intestinal maltase = experiment: In vitro α-glucosidase inhibition assay, rat intestinal maltase; type: biochemical; conditions: rat small intestinal brush border membrane vesicles; maltose substrate; mean ± SD (n = 3); read-out: IC50 against maltase
# Method: as §1
# [1] = rat small intestinal brush border membrane vesicles, sucrose substrate, mean ± SD (n = 3), read-out: IC50 against sucrase
# T1 sequence (P23739 whole entry): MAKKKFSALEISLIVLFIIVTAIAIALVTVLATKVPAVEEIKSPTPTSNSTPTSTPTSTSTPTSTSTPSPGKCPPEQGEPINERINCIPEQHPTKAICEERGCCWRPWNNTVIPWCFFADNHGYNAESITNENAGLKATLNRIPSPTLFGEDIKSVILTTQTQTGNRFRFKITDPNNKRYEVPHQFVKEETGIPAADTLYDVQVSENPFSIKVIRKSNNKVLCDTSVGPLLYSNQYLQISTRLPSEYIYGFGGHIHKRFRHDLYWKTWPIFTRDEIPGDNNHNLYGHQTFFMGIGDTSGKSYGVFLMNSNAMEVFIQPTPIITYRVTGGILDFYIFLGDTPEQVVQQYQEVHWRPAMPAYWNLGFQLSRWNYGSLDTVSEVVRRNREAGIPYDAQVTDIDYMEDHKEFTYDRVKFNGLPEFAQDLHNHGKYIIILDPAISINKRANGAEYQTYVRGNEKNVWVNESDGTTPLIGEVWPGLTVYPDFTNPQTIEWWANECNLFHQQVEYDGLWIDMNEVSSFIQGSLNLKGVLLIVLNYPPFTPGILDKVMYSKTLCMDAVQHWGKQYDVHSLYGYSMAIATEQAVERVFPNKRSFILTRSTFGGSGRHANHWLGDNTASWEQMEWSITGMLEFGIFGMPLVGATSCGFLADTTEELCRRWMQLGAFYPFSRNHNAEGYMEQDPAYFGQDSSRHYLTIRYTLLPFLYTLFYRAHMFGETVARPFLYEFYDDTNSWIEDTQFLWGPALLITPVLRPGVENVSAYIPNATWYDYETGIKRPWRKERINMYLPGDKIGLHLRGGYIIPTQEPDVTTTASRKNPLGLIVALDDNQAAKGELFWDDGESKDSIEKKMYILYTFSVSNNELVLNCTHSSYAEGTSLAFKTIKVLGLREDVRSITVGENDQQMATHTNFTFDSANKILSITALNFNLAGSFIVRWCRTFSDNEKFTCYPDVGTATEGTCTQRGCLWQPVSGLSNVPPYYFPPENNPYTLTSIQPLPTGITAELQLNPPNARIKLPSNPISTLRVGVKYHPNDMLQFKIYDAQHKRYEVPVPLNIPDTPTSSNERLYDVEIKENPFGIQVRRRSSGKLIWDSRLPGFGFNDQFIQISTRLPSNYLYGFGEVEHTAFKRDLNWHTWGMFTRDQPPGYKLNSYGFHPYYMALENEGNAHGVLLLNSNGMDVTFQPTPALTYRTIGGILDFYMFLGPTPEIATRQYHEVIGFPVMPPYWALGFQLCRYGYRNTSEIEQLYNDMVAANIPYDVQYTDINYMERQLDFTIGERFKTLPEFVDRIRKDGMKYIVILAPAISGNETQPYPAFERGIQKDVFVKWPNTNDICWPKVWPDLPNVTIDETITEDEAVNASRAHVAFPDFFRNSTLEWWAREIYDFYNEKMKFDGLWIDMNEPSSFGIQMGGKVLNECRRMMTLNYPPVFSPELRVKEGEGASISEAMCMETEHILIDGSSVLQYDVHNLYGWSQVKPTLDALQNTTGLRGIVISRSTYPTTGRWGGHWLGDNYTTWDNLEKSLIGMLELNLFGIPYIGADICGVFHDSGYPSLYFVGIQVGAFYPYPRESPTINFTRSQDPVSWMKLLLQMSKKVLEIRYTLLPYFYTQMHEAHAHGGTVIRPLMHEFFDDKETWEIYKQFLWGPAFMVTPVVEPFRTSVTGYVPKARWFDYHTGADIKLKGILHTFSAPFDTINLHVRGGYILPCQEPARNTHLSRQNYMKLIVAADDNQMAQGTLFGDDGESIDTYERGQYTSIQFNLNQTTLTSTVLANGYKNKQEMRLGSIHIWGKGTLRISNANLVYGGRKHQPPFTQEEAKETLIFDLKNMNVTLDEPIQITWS
Compound,IC50 (rat intestinal sucrase; [1]) [nM],IC50 (rat intestinal maltase) [nM],IC50 (rat intestinal sucrase) [nM]
"OC[C@@H]1[C@@H](O)[C@H](O)C[Se@+]1C[C@@H](O)[C@H]1OC(c2ccc(Br)cc2)OC[C@H]1O (stereo partly drawn) [20m, (1S,2R,3S,4S)-1-((2S)-2-((4S,5R)-2-(4-Bromophenyl)-5-hydroxy-1,3-dioxan-4-yl)-2-hydroxyethyl)-3,4-dihydroxy-2-(hydroxymethyl)tetrahydro-1H-selenophen-1-ium chloride]",,70 ± 30,200 ± 50
"OC[C@@H]1[C@@H](O)[C@H](O)C[Se@+]1C[C@@H](O)[C@H]1OC(c2ccccc2-c2ccccc2)OC[C@H]1O (stereo partly drawn) [20r, (1S,2R,3S,4S)-1-((2S)-2-((4S,5R)-2-([1,1′-biphenyl]-2-yl)-5-hydroxy-1,3-dioxan-4-yl)-2-hydroxyethyl)-3,4-dihydroxy-2-(hydroxymethyl)tetrahydro-1H-selenophen-1-ium chloride]",,2000 ± 520,720 ± 170
"OC[C@@H]1[C@@H](O)[C@H](O)C[Se@+]1C[C@@H](O)[C@H]1OC(c2ccccc2F)OC[C@H]1O (stereo partly drawn) [20n, (1S,2R,3S,4S)-1-((2S)-2-((4S,5R)-2-(2-Fluorophenyl)-5-hydroxy-1,3-dioxan-4-yl)-2-hydroxyethyl)-3,4-dihydroxy-2-(hydroxymethyl)tetrahydro-1H-selenophen-1-ium chloride]",,3750 ± 580,200 ± 60
"N#Cc1ccccc1C1OC[C@@H](O)[C@@H]([C@H](O)C[Se@@+]2C[C@@H](O)[C@H](O)[C@H]2CO)O1 (stereo partly drawn) [20p, (1S,2R,3S,4S)-1-((2S)-2-((4S,5R)-2-(2-Cyanophenyl)-5-hydroxy-1,3-dioxan-4-yl)-2-hydroxyethyl)-3,4-dihydroxy-2-(hydroxymethyl)tetrahydro-1H-selenophen-1-ium chloride]",,820 ± 210,370 ± 50
"OC[C@@H]1[C@@H](O)[C@H](O)C[Se@+]1C[C@@H](O)[C@H]1OC(c2ccccc2Br)OC[C@H]1O (stereo partly drawn) [20k, (1S,2R,3S,4S)-1-((2S)-2-((4S,5R)-2-(2-Bromophenyl)-5-hydroxy-1,3-dioxan-4-yl)-2-hydroxyethyl)-3,4-dihydroxy-2-(hydroxymethyl)tetrahydro-1H-selenophen-1-ium chloride]",,530 ± 220,120 ± 50
"OC[C@@H]1[C@@H](O)[C@H](O)C[Se@@+]1C[C@@H](O)[C@H]1OC(c2cccc3ccccc23)OC[C@H]1O (stereo partly drawn) [20q, (1S,2R,3S,4S)-3,4-dihydroxy-1-((2S)-2-hydroxy-2-((4S,5R)-5-hydroxy-2-(naphthalen-1-yl)-1,3-dioxan-4-yl)ethyl)-2-(hydroxymethyl)tetrahydro-1H-selenophen-1-ium chloride]",,920 ± 230,680 ± 140
"OCC1C(O)C(O)C[S+]1CC(O)C1OC(c2cc(C(F)(F)F)cc(C(F)(F)F)c2)OCC1O [19i, 1,4-Dideoxy-1,4-[(R)-(5-deoxy-1,3-O-(3,5-bis(trifluoromethyl)benzylidene)-D-arabinitol-5-yl)episulfoniumylidene]-D-arabinitol chloride]",10000 ± 1800,8900 ± 530,
"OC[C@@H]1[C@@H](O)[C@H](O)C[Se@+]1C[C@@H](O)[C@H]1OC(c2cc(Cl)cc(Cl)c2)OC[C@H]1O (stereo partly drawn) [20g, (1S,2R,3S,4S)-1-((2S)-2-((4S,5R)-2-(3,5-Dichlorophenyl)-5-hydroxy-1,3–dioxan-4-yl)-2-hydroxyethyl)-3,4-dihydroxy-2-(hydroxymethyl)tetrahydro-1H-selenophen-1-ium Chloride]",,710 ± 210,220 ± 50
"OC[C@@H]1[C@@H](O)[C@H](O)C[Se@+]1C[C@@H](O)[C@H]1OC(c2cccc(Br)c2)OC[C@H]1O (stereo partly drawn) [20l, (1S,2R,3S,4S)-1-((2S)-2-((4S,5R)-2-(3-Bromophenyl)-5-hydroxy-1,3-dioxan-4-yl)-2-hydroxyethyl)-3,4-dihydroxy-2-(hydroxymethyl)tetrahydro-1H-selenophen-1-ium chloride]",,690 ± 50,210 ± 20
"OC[C@@H]1[C@@H](O)[C@H](O)C[Se@+]1C[C@@H](O)[C@H]1OC(c2ccc(Cl)cc2Cl)OC[C@H]1O (stereo partly drawn) [20b, (1S,2R,3S,4S)-1-((2S)-2-((4S,5R)-2-(2,4-Dichlorophenyl)-5-hydroxy-1,3-dioxan-4-yl)-2-hydroxyethyl)-3,4-dihydroxy-2-(hydroxymethyl)tetrahydro-1H-selenophen-1-ium chloride]",,260 ± 80,220 ± 60
"OC[C@@H]1[C@@H](O)[C@H](O)C[Se@+]1C[C@@H](O)[C@H]1OC(c2cc(F)ccc2Cl)OC[C@H]1O (stereo partly drawn) [20e, (1S,2R,3S,4S)-1-((2S)-2-((4S,5R)-2-(2-Chloro-5-fluorophenyl)-5-hydroxy-1,3-dioxan-4-yl)-2-hydroxyethyl)-3,4-dihydroxy-2-(hydroxymethyl)tetrahydro-1H-selenophen-1-ium chloride]",,450 ± 80,410 ± 110
"OC[C@@H]1[C@@H](O)[C@H](O)C[Se@+]1C[C@@H](O)[C@H]1OC(c2ccc(Cl)c(Cl)c2)OC[C@H]1O (stereo partly drawn) [20f, (1S,2R,3S,4S)-1-((2S)-2-((4S,5R)-2-(3,4-Dichlorophenyl)-5-hydroxy-1,3-dioxan-4-yl)-2-hydroxyethyl)-3,4-dihydroxy-2-(hydroxymethyl)tetrahydro-1H-selenophen-1-ium chloride]",,470 ± 110,330 ± 40

# Further lines, with some results ahead:
IC50 (rat intestinal sucrase; [1]) [nM],IC50 (rat intestinal maltase) [nM],Compound,IC50 (rat intestinal sucrase) [nM]
800 ± 120,550 ± 50,"OCC1C(O)C(O)C[S+]1CC(O)C1OC(c2cc(Cl)ccc2Cl)OCC1O [19c, 1,4-Dideoxy-1,4-[(R)-(5-deoxy-1,3-O-(2,5-dichlorobenzylidene)-D-arabinitol-5-yl)episulfoniumylidene]-D-arabinitol chloride]",
700 ± 130,1000 ± 50,"OCC1C(O)C(O)C[S+]1CC(O)C1OC(c2cccc(F)c2Cl)OCC1O [19d, 1,4-Dideoxy-1,4-[(R)-(5-deoxy-1,3-O-(2-chloro-3-fluorobenzylidene)-D-arabinitol-5-yl)episulfoniumylidene]-D-arabinitol chloride]",
1200 ± 230,2000 ± 80,"OCC1C(O)C(O)C[S+]1CC(O)C1OC(c2ccc(Cl)cc2Cl)OCC1O [19b, 1,4-Dideoxy-1,4-[(R)-(5-deoxy-1,3-O-(2,4-dichlorobenzylidene)-D-arabinitol-5-yl)episulfoniumylidene]-D-arabinitol chloride]",
4600 ± 90,5000 ± 390,"OCC1C(O)C(O)C[S+]1CC(O)C1OC(c2ccc(Cl)c(Cl)c2)OCC1O [19f, 1,4-Dideoxy-1,4-[(R)-(5-deoxy-1,3-O-(3,4-dichlorobenzylidene)-D-arabinitol-5-yl)episulfoniumylidene]-D-arabinitol chloride]",
5800 ± 410,4600 ± 370,"OCC1C(O)C(O)C[S+]1CC(O)C1OC(c2cccc3ccccc23)OCC1O [19q, 1,4-Dideoxy-1,4-[(R)-(5-deoxy-1,3-O-(1-naphthalene)-D-arabinitol-5-yl)episulfoniumylidene]-D-arabinitol chloride]",
1500 ± 210,750 ± 80,"O=[N+]([O-])c1ccc(F)cc1C1OCC(O)C(C(O)C[S+]2CC(O)C(O)C2CO)O1 [19j, 1,4-Dideoxy-1,4-[(R)-(5-deoxy-1,3-O-(5-fluoro-2-nitrobenzylidene)-D-arabinitol-5-yl)episulfoniumylidene]-D-arabinitol chloride]",
1400 ± 330,850 ± 280,"OCC1C(O)C(O)C[S+]1CC(O)C1OC(c2cc(F)cc(Cl)c2)OCC1O [19h, 1,4-Dideoxy-1,4-[(R)-(5-deoxy-1,3-O-(3-chloro-5-fluorobenzylidene)-D-arabinitol5-yl)episulfoniumylidene]-D-arabinitol chloride]",
3500 ± 60,4100 ± 80,"OCC1C(O)C(O)C[S+]1CC(O)C1OC(c2ccc(Br)cc2)OCC1O [19m, 1,4-Dideoxy-1,4-[(R)-(5-deoxy-1,3-O-(p-bromobenzylidene)-D-arabinitol-5-yl)episulfoniumylidene]-D-arabinitol chloride]",
5500 ± 620,4900 ± 250,"OCC1C(O)C(O)C[S+]1CC(O)C1OC(c2cc(Cl)cc(Cl)c2)OCC1O [19g, 1,4-Dideoxy-1,4-[(R)-(5-deoxy-1,3-O-(3,5-dichlorobenzylidene)-D-arabinitol-5-yl)episulfoniumylidene]-D-arabinitol chloride]",
6600 ± 450,,"OCC1C(O)C(O)C[S+]1CC(O)C1OC(c2cc(F)ccc2Cl)OCC1O [19e, 1,4-Dideoxy-1,4-[(R)-(5-deoxy-1,3-O-(2-chloro-5-fluorobenzylidene)-D-arabinitol-5-yl)episulfoniumylidene]-D-arabinitol chloride]",
7900 ± 1600,9700 ± 740,"OCC1C(O)C(O)C[S+]1CC(O)C1OC(c2cccc(Br)c2)OCC1O [19l, 1,4-Dideoxy-1,4-[(R)-(5-deoxy-1,3-O-(m-bromobenzylidene)-D-arabinitol-5-yl)episulfoniumylidene]-D-arabinitol chloride]",
900 ± 50,880 ± 40,"N#Cc1ccccc1C1OCC(O)C(C(O)C[S+]2CC(O)C(O)C2CO)O1 [19p, 1,4-Dideoxy-1,4-[(R)-(5-deoxy-1,3-O-(o-cyanobenzyliden)-D-arabinitol-5-yl)episulfoniumylidene]-D-arabinitol chloride]",
1600 ± 430,500 ± 80,"OCC1C(O)C(O)C[S+]1CC(O)C1OC(c2cccc(Cl)c2Cl)OCC1O [19a, 1,4-Dideoxy-1,4-[(R)-(5-deoxy-1,3-O-(2,3-dichlorobenzylidene)-D-arabinitol-5-yl)episulfoniumylidene]-D-arabinitol chloride]",
